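These data come from cells grown in 96-well plates and exposed to compound for 48 hours at five concentrations. Here, GI50 denotes the concentration required for 50% inhibition of growth.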 Activity calls are given as the source filed them. Rule as the data show it: active = GI50 up to about 1.1 µM and inactive = higher.
Columns and labels:
Assay in all cases: NCI anticancer screen, dose series, 48 h
786-0 = system: 786-0
A498 = system: A498
A549 = system: A549
ACHN = system: ACHN
BT-549 = system: BT-549
CAKI-1 = system: CAKI-1
CCRF-CEM = system: CCRF-CEM
COLO 205 = system: COLO 205
DU-145 = system: DU-145
EKVX = system: EKVX
HCC 2998 = system: HCC 2998
HCT-116 = system: HCT-116
HCT-15 = system: HCT-15
HOP-62 = system: HOP-62
HT-29 = system: HT-29
K562 = system: K562
KM12 = system: KM12
M14 = system: M14
MCF7 = system: MCF7
MDA-MB-231 = system: MDA-MB-231
MDA-MB-435 = system: MDA-MB-435
MDA-N = system: MDA-N
MOLT-4 = system: MOLT-4
Malme-3M = system: Malme-3M
NCI-H226 = system: NCI-H226
NCI-H23 = system: NCI-H23
NCI-H460 = system: NCI-H460
NCI/ADR-RES = system: NCI/ADR-RES
OVCAR-3 = system: OVCAR-3
OVCAR-4 = system: OVCAR-4
OVCAR-5 = system: OVCAR-5
OVCAR-8 = system: OVCAR-8
PC-3 = system: PC-3
RPMI-8226 = system: RPMI-8226
RXF 393 = system: RXF 393
SF-268 = system: SF-268
SF-295 = system: SF-295
SF-539 = system: SF-539
SK-MEL-28 = system: SK-MEL-28
SK-MEL-2 = system: SK-MEL-2
SK-OV-3 = system: SK-OV-3
SN12C = system: SN12C
SNB-19 = system: SNB-19
SNB-75 = system: SNB-75
SW-620 = system: SW-620
T47D = system: T47D
U-251 = system: U-251
UACC-257 = system: UACC-257
UACC-62 = system: UACC-62
UO-31 = system: UO-31
HL-60 = system: HL-60
HOP-92 = system: HOP-92
Hs-578T = system: Hs-578T
IGROV-1 = system: IGROV-1
LOX IMVI = system: LOX IMVI
NCI-H522 = system: NCI-H522
SK-MEL-5 = system: SK-MEL-5
SR = system: SR
TK-10 = system: TK-10

Measured: GI50

CC(C)(C)OC/C=C(\Br)CO
> 100000 nM: HCT-15
inactive: 786-0 > 100000 nM | A498 > 100000 nM | A549 > 100000 nM | ACHN > 100000 nM | BT-549 > 100000 nM | CAKI-1 > 100000 nM | CCRF-CEM > 100000 nM | COLO 205 > 100000 nM | DU-145 > 100000 nM | EKVX > 100000 nM | HCC 2998 > 100000 nM | HCT-116 > 100000 nM | HOP-62 > 100000 nM | HT-29 > 100000 nM | K562 > 100000 nM | KM12 41600 nM | M14 > 100000 nM | MCF7 > 100000 nM | MDA-MB-231 > 100000 nM | MDA-MB-435 > 100000 nM | MDA-N > 100000 nM | MOLT-4 > 100000 nM | Malme-3M > 100000 nM | NCI-H226 > 100000 nM | NCI-H23 > 100000 nM | NCI-H460 > 100000 nM | NCI/ADR-RES > 100000 nM | OVCAR-3 > 100000 nM | OVCAR-4 > 100000 nM | OVCAR-5 > 100000 nM | OVCAR-8 > 100000 nM | PC-3 > 100000 nM | RPMI-8226 > 100000 nM | RXF 393 > 100000 nM | SF-268 > 100000 nM | SF-295 > 100000 nM | SF-539 > 100000 nM | SK-MEL-28 > 100000 nM | SK-MEL-2 > 100000 nM | SK-OV-3 > 100000 nM | SN12C > 100000 nM | SNB-19 > 100000 nM | SNB-75 > 100000 nM | SW-620 > 100000 nM | T47D > 100000 nM | U-251 > 100000 nM | UACC-257 > 100000 nM | UACC-62 > 100000 nM | UO-31 > 100000 nM

COc1cc2c(cc1OCCCCCOc1cc3c(cc1OC)C(=O)N1CCC[C@H]1C(=O)N3)N=C[C@@H]1CCCN1C2=O
active: 786-0 76.2 nM | A498 218 nM | A549 716 nM | ACHN 206 nM | BT-549 75 nM | CAKI-1 839 nM | CCRF-CEM < 10 nM | COLO 205 17.7 nM | DU-145 780 nM | EKVX 279 nM | HCC 2998 < 10 nM | HCT-116 193 nM | HL-60 81.7 nM | HOP-62 140 nM | HOP-92 29.9 nM | HT-29 116 nM | Hs-578T 258 nM | IGROV-1 132 nM | K562 45.3 nM | KM12 180 nM | LOX IMVI 27.4 nM | M14 114 nM | MCF7 22.9 nM | MDA-MB-231 140 nM | MDA-MB-435 124 nM | MOLT-4 < 10 nM | Malme-3M 161 nM | NCI-H226 166 nM | NCI-H23 210 nM | NCI-H460 116 nM | NCI-H522 11.2 nM | OVCAR-3 165 nM | OVCAR-4 198 nM | OVCAR-5 957 nM | OVCAR-8 225 nM | PC-3 256 nM | RPMI-8226 30.1 nM | RXF 393 175 nM | SF-268 32.5 nM | SF-295 268 nM | SF-539 22.4 nM | SK-MEL-28 174 nM | SK-MEL-2 80.9 nM | SK-MEL-5 100 nM | SK-OV-3 102 nM | SN12C 71.1 nM | SNB-19 192 nM | SNB-75 < 10 nM | SR < 10 nM | SW-620 87.5 nM | T47D 33.6 nM | TK-10 111 nM | U-251 22.5 nM | UACC-257 237 nM | UACC-62 73.6 nM | UO-31 762 nM
inactive: NCI/ADR-RES 7800 nM
3080 nM: HCT-15
